# Test results reported in patent US20040224892A1, “Oligosaccharides in cosmetic or dermatological compositions for stimulating adhesion of keratinocytes to major proteins of the dermoepidermal junction and restoration of epidermal cohesion” (Laboratoires de Biologie Vegetale Yves Rocher, a …, priority 2001, published 2004).
# Legend:
# [1] = tested on: normal human keratinocytes on collagen IV; assay: Adhesion of normal human keratinocytes on collagen IV (colorimetric crystal violet adherence test); assay type: cell-based; details: manganese chloride 0.5 mM, 45 minutes
# Protocol: (§1) The culture medium employed was the defined medium for keratinocyte culture 154 (+additive HKGS) manufactured by Cascade Inc. (USA) and marketed by Tebu (France) containing 0.2 mM of CaCl2, pH 7.2 to 7.4. The keratinocytes were obtained according to the technique described by Boyce and Ham (Boyce S T, Ham R G, J. Invest. Dermatol., 1983, 81, 33s-40s). Pieces of human skin obtain from human prepuces (circumcision) were treated in a manner to isolate their basal human keratinocytes. 3·10^4 live cells were then seeded per cm^2 on 25-cm^2 tissue culture dishes (Coming, Polylabo, France). The keratinocytes were cultured at 37° C. in an incubator with CO2 (5% of CO2, 95% of air and 98% humidity). The medium was changed every two days. Subculture took place when the cells reached subconfluence. The cell layer was then rinsed with PBS, then the cells were trypsinated using the conventional trypsination technique (Trypsin-EDTA (0.05-0.02%) at 37° C.). The cells were then seeded in 75-cm^2 culture dishes. Collagen IV (Becton Dickinson, France), fibronectin (Becton Dickinson, France) and laminin 5, purified in the laboratory (Pousselle P. et al., J. Cell. Biol., 1991, 114(3); 567-576) were used in our experiments. […] An absorbance reading was performed at 570 nm using an ELISA plate reader. […] We then calculated the means of the three absorbance values for each of the triplicates.
# [2] = tested on: normal human keratinocytes on laminin V; assay: Adhesion of normal human keratinocytes on laminin V (colorimetric crystal violet adherence test); assay type: cell-based; details: manganese chloride 0.5 mM, 45 minutes
# Protocol: as §1, with “triplicates. […]” for “triplicates.”
substance,measurement,setting,value
Manganese chloride [MnCl2],% adherence (cells alone = 100%),[1]; Collagen IV 10 μg/ml,280%
same,% adherence (cells alone = 100%),[1]; Collagen IV 20 μg/ml,357%
same,% adherence (cells alone = 100%),[2]; Laminin 5 1.5 μg/ml,109%
same,% adherence (cells alone = 100%),[2]; Laminin 5 3 μg/ml,97%
